Data published in the NIST ThermoML archive (doi:10.1021/acs.jced.9b00396).
± gives the expanded uncertainty stated by the source.

Settings: Liquid; for speed of sound: Frequency=3 MHz, Single path-length method; for mass density: Vibrating tube method

CC(=O)OCCC(C)C [3-methylbutyl ethanoate]
speed of sound (293.15 K, 100 kPa): 1213 ± 3 m/s
mass density (293.15 K, 100 kPa): 872.9 ± 0.9 kg/m3
mass density (293.15 K, 500 kPa): 874 ± 1 kg/m3
mass density (293.15 K, 1000 kPa): 874 ± 1 kg/m3
mass density (293.15 K, 2500 kPa): 875 ± 1 kg/m3
mass density (293.15 K, 5000 kPa): 877 ± 1 kg/m3
mass density (293.15 K, 7500 kPa): 879 ± 1 kg/m3
mass density (293.15 K, 10000 kPa): 881 ± 1 kg/m3
mass density (293.15 K, 12500 kPa): 883 ± 1 kg/m3
mass density (293.15 K, 15000 kPa): 885 ± 1 kg/m3
mass density (293.15 K, 17500 kPa): 887 ± 1 kg/m3
mass density (293.15 K, 20000 kPa): 889 ± 1 kg/m3
mass density (293.15 K, 22500 kPa): 891 ± 1 kg/m3
mass density (293.15 K, 25000 kPa): 893 ± 1 kg/m3
mass density (293.15 K, 27500 kPa): 895 ± 1 kg/m3
mass density (293.15 K, 30000 kPa): 896 ± 1 kg/m3
mass density (293.15 K, 32500 kPa): 898 ± 1 kg/m3
mass density (293.15 K, 35000 kPa): 899 ± 1 kg/m3
mass density (293.15 K, 37500 kPa): 901 ± 1 kg/m3
speed of sound (298.15 K, 100 kPa): 1193 ± 3 m/s
mass density (298.15 K, 100 kPa): 868 ± 0.9 kg/m3
mass density (298.15 K, 500 kPa): 869 ± 1 kg/m3
mass density (298.15 K, 1000 kPa): 869 ± 1 kg/m3
mass density (298.15 K, 2500 kPa): 870 ± 1 kg/m3
mass density (298.15 K, 5000 kPa): 873 ± 1 kg/m3
mass density (298.15 K, 7500 kPa): 875 ± 1 kg/m3
mass density (298.15 K, 10000 kPa): 877 ± 1 kg/m3
mass density (298.15 K, 12500 kPa): 879 ± 1 kg/m3
mass density (298.15 K, 15000 kPa): 881 ± 1 kg/m3
mass density (298.15 K, 17500 kPa): 883 ± 1 kg/m3
mass density (298.15 K, 20000 kPa): 885 ± 1 kg/m3
mass density (298.15 K, 22500 kPa): 886 ± 1 kg/m3
mass density (298.15 K, 25000 kPa): 888 ± 1 kg/m3
mass density (298.15 K, 27500 kPa): 890 ± 1 kg/m3
mass density (298.15 K, 30000 kPa): 892 ± 1 kg/m3
mass density (298.15 K, 32500 kPa): 894 ± 1 kg/m3
mass density (298.15 K, 35000 kPa): 895 ± 1 kg/m3
mass density (298.15 K, 37500 kPa): 897 ± 1 kg/m3
speed of sound (313.15 K, 100 kPa): 1132 ± 3 m/s
mass density (313.15 K, 100 kPa): 853.3 ± 0.9 kg/m3
mass density (313.15 K, 500 kPa): 854 ± 1 kg/m3
mass density (313.15 K, 1000 kPa): 854 ± 1 kg/m3
mass density (313.15 K, 2500 kPa): 856 ± 1 kg/m3
mass density (313.15 K, 5000 kPa): 858 ± 1 kg/m3
mass density (313.15 K, 7500 kPa): 861 ± 1 kg/m3
mass density (313.15 K, 10000 kPa): 863 ± 1 kg/m3
mass density (313.15 K, 12500 kPa): 865 ± 1 kg/m3
mass density (313.15 K, 15000 kPa): 867 ± 1 kg/m3
mass density (313.15 K, 17500 kPa): 869 ± 1 kg/m3
mass density (313.15 K, 20000 kPa): 871 ± 1 kg/m3
mass density (313.15 K, 22500 kPa): 873 ± 1 kg/m3
mass density (313.15 K, 25000 kPa): 875 ± 1 kg/m3
mass density (313.15 K, 27500 kPa): 877 ± 1 kg/m3
mass density (313.15 K, 30000 kPa): 879 ± 1 kg/m3
mass density (313.15 K, 32500 kPa): 881 ± 1 kg/m3
mass density (313.15 K, 35000 kPa): 883 ± 1 kg/m3
mass density (313.15 K, 37500 kPa): 885 ± 1 kg/m3
speed of sound (333.15 K, 100 kPa): 1045 ± 3 m/s
mass density (333.15 K, 100 kPa): 833.3 ± 0.9 kg/m3
mass density (333.15 K, 500 kPa): 834 ± 1 kg/m3
mass density (333.15 K, 1000 kPa): 834 ± 1 kg/m3
mass density (333.15 K, 2500 kPa): 836 ± 1 kg/m3
mass density (333.15 K, 5000 kPa): 839 ± 1 kg/m3
mass density (333.15 K, 7500 kPa): 842 ± 1 kg/m3
mass density (333.15 K, 10000 kPa): 844 ± 1 kg/m3
mass density (333.15 K, 12500 kPa): 847 ± 1 kg/m3
mass density (333.15 K, 15000 kPa): 849 ± 1 kg/m3
mass density (333.15 K, 17500 kPa): 851 ± 1 kg/m3
mass density (333.15 K, 20000 kPa): 854 ± 1 kg/m3
mass density (333.15 K, 22500 kPa): 856 ± 1 kg/m3
mass density (333.15 K, 25000 kPa): 858 ± 1 kg/m3
mass density (333.15 K, 27500 kPa): 860 ± 1 kg/m3
mass density (333.15 K, 30000 kPa): 862 ± 1 kg/m3
mass density (333.15 K, 32500 kPa): 864 ± 1 kg/m3
mass density (333.15 K, 35000 kPa): 866 ± 1 kg/m3
mass density (333.15 K, 37500 kPa): 868 ± 1 kg/m3
mass density (353.15 K, 500 kPa): 814 ± 1 kg/m3
mass density (353.15 K, 1000 kPa): 814 ± 1 kg/m3
mass density (353.15 K, 2500 kPa): 816 ± 1 kg/m3
mass density (353.15 K, 5000 kPa): 819 ± 1 kg/m3
mass density (353.15 K, 7500 kPa): 823 ± 1 kg/m3
mass density (353.15 K, 10000 kPa): 825 ± 1 kg/m3
mass density (353.15 K, 12500 kPa): 828 ± 1 kg/m3
mass density (353.15 K, 15000 kPa): 831 ± 1 kg/m3
mass density (353.15 K, 17500 kPa): 834 ± 1 kg/m3
mass density (353.15 K, 20000 kPa): 836 ± 1 kg/m3
mass density (353.15 K, 22500 kPa): 839 ± 1 kg/m3
mass density (353.15 K, 25000 kPa): 841 ± 1 kg/m3
mass density (353.15 K, 27500 kPa): 843 ± 1 kg/m3
mass density (353.15 K, 30000 kPa): 846 ± 1 kg/m3
mass density (353.15 K, 32500 kPa): 848 ± 1 kg/m3
mass density (353.15 K, 35000 kPa): 850 ± 1 kg/m3
mass density (353.15 K, 37500 kPa): 852 ± 1 kg/m3
mass density (373.15 K, 500 kPa): 793 ± 1 kg/m3
mass density (373.15 K, 1000 kPa): 794 ± 1 kg/m3
mass density (373.15 K, 2500 kPa): 796 ± 1 kg/m3
mass density (373.15 K, 5000 kPa): 800 ± 1 kg/m3
